According to US20220119354A1, “DIAMINO-SUBSTITUTED PYRIDINES AND PYRIMIDINES AS HERBICIDES” (FMC Corporation, priority 2019, published 2022):

Columns and labels:
Assay type in all cases: in vivo
[1] = tested on: barnyardgrass (Echinochloa crus-galli); assay: Test A preemergence, barnyardgrass; conditions: 0 to 100 scale; for Barnyardgrass plant response rating: 0 is no effect, 100 is complete control
In short: (§1)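 Greenhouse pot test, loam/sand soil. Pre: directed soil spray at planting; post: foliar spray at 1–2 leaf stage (2–10 cm). Chemical in non-phytotoxic solvent + surfactant. Visual rating ~10 d, 0 = no effect, 100 = complete control.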

kochia (Kochia scoparia) [2] = assay: Test A preemergence, kochia; conditions: 0 to 100 scale; for Kochia plant response rating: 0 is no effect, 100 is complete control
In short: as §1

[3] = tested on: ragweed (common ragweed, Ambrosia elatior); assay: Test A preemergence, ragweed; conditions: 0 to 100 scale; for Ragweed plant response rating: 0 is no effect, 100 is complete control
In short: as §1

[4] = tested on: ryegrass, Italian (Lolium multiflorum); assay: Test A preemergence, Italian ryegrass; conditions: 0 to 100 scale; for Ryegrass, Italian plant response rating: 0 is no effect, 100 is complete control
In short: as §1

[5] = tested on: foxtail, giant (Setaria faberii); assay: Test A preemergence, giant foxtail; conditions: 0 to 100 scale; for Foxtail, Giant plant response rating: 0 is no effect, 100 is complete control
In short: as §1

[6] = tested on: pigweed (Amaranthus retroflexus); assay: Test A preemergence, pigweed; conditions: 0 to 100 scale; for Pigweed plant response rating: 0 is no effect, 100 is complete control
In short: as §1

[7] = tested on: barnyardgrass (Echinochloa crus-galli); assay: Test A postemergence, barnyardgrass; conditions: 0 to 100 scale
In short: as §1

kochia (Kochia scoparia) [8] = assay: Test A postemergence, kochia; conditions: 0 to 100 scale
In short: as §1

[9] = tested on: ragweed (common ragweed, Ambrosia elatior); assay: Test A postemergence, ragweed; conditions: 0 to 100 scale
In short: as §1

[10] = tested on: ryegrass, Italian (Lolium multiflorum); assay: Test A postemergence, Italian ryegrass; conditions: 0 to 100 scale
In short: as §1

[11] = tested on: foxtail, giant (Setaria faberii); assay: Test A postemergence, giant foxtail; conditions: 0 to 100 scale
In short: as §1

[12] = tested on: pigweed (Amaranthus retroflexus); assay: Test A postemergence, pigweed; conditions: 0 to 100 scale
In short: as §1

[13] = tested on: wheat (Triticum aestivum); assay: Test A postemergence, wheat; conditions: 0 to 100 scale
In short: as §1

corn (Zea mays) = assay: Test A postemergence, corn; conditions: 0 to 100 scale
In short: as §1

[14] = tested on: blackgrass (Alopecurus myosuroides); assay: Test A postemergence, blackgrass; conditions: 0 to 100 scale
In short: as §1

[15] = tested on: galium (catchweed bedstraw, Galium aparine); assay: Test A postemergence, galium; conditions: 0 to 100 scale
In short: as §1

rice (Oryza sativa) = assay: Test B flooded paddy test, rice; conditions: Flood, 250 g ai/ha, applied to paddy water, 2-leaf stage, visual evaluation after 13 to 15 d
In short: (§2)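 Rating: 0 = no effect, 100 = complete control, visual, relative to untreated plants. Conditions: 2-leaf stage, 3 cm flood kept constant, compound put directly into water, 13–15 d greenhouse.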

[16] = tested on: sedge, umbrella (small-flower umbrella sedge, Cyperus difformis); assay: Test B flooded paddy test, umbrella sedge; conditions: Flood, 250 g ai/ha, applied to paddy water, 2-leaf stage, visual evaluation after 13 to 15 d
In short: as §2

[17] = tested on: ducksalad (Heteranthera limosa); assay: Test B flooded paddy test, ducksalad; conditions: Flood, 250 g ai/ha, applied to paddy water, 2-leaf stage, visual evaluation after 13 to 15 d
In short: as §2

[18] = tested on: barnyardgrass (Echinochloa crus-galli); assay: Test B flooded paddy test, barnyardgrass; conditions: Flood, 250 g ai/ha, applied to paddy water, 2-leaf stage, visual evaluation after 13 to 15 d
In short: as §2

[19] = 31 g ai/ha, 0 no effect, 100 complete control
[20] = 125 g ai/ha, 0 no effect, 100 complete control
[21] = 500 g ai/ha, 0 is no effect, 100 is complete control

SMILES: C[C@@H](Nc1ncc([S+](C)[O-])c(N)n1)c1cc2ccccc2s1 (stereo partly drawn) [Compound 110]
- Barnyardgrass plant response rating ([1]; 31 g ai/ha): 0
- Barnyardgrass plant response rating ([1]; 125 g ai/ha): 0
- Kochia plant response rating (kochia (Kochia scoparia) [2]; 31 g ai/ha): 0
- Kochia plant response rating (kochia (Kochia scoparia) [2]; 125 g ai/ha): 0
- Ragweed plant response rating ([3]; 31 g ai/ha): 40
- Ragweed plant response rating ([3]; 125 g ai/ha): 80
- Ryegrass, Italian plant response rating ([4]; 31 g ai/ha): 0
- Ryegrass, Italian plant response rating ([4]; 125 g ai/ha): 0
- Foxtail, Giant plant response rating ([5]; 31 g ai/ha): 0
- Foxtail, Giant plant response rating ([5]; 125 g ai/ha): 0
- Pigweed plant response rating ([6]; 31 g ai/ha): 0
- Pigweed plant response rating ([6]; 125 g ai/ha): 30
- Plant response rating, Barnyardgrass [7, 19]: 0
- Plant response rating, Barnyardgrass [7, 20]: 10
- Plant response rating, Kochia (kochia (Kochia scoparia) [8]; [19]): 0
- Plant response rating, Kochia (kochia (Kochia scoparia) [8]; [20]): 10
- Plant response rating, Ragweed [9, 19]: 0
- Plant response rating, Ragweed [9, 20]: 30
- Plant response rating, Ryegrass, Italian [10, 19]: 0
- Plant response rating, Ryegrass, Italian [10, 20]: 0
- Plant response rating, Foxtail, Giant [11, 19]: 0
- Plant response rating, Foxtail, Giant [11, 20]: 0
- Plant response rating, Pigweed [12, 19]: 60
- Plant response rating, Pigweed [12, 20]: 80
- Plant response rating, Wheat [13, 19]: 0
- Plant response rating, Wheat [13, 20]: 0
- Plant response rating, Corn (corn (Zea mays); [19]): 0
- Plant response rating, Corn (corn (Zea mays); [20]): 10
- Plant response rating, Blackgrass [14, 19]: 0
- Plant response rating, Blackgrass [14, 20]: 0
- Plant response rating, Galium [15, 19]: 30
- Plant response rating, Galium [15, 20]: 70
- Plant response rating, Rice (0 to 100 scale, 0 is no effect, 100 is complete control) (rice (Oryza sativa)): 15
- Plant response rating, Sedge, Umbrella (0 to 100 scale, 0 is no effect, 100 is complete control) [16]: 90
- Plant response rating, Ducksalad (0 to 100 scale, 0 is no effect, 100 is complete control) [17]: 60
- Plant response rating, Barnyardgrass (0 to 100 scale, 0 is no effect, 100 is complete control) [18]: 20

SMILES: CC[C@H](Nc1ncc(C(F)(F)F)c(N)n1)c1cc2ccccc2s1 [Compound 44]
- Barnyardgrass plant response rating ([1]; 125 g ai/ha): 0
- Barnyardgrass plant response rating ([1]; 500 g ai/ha): 40
- Kochia plant response rating (kochia (Kochia scoparia) [2]; 125 g ai/ha): 0
- Kochia plant response rating (kochia (Kochia scoparia) [2]; 500 g ai/ha): 0
- Ragweed plant response rating ([3]; 125 g ai/ha): 20
- Ragweed plant response rating ([3]; 500 g ai/ha): 50
- Ryegrass, Italian plant response rating ([4]; 125 g ai/ha): 0
- Ryegrass, Italian plant response rating ([4]; 500 g ai/ha): 0
- Foxtail, Giant plant response rating ([5]; 125 g ai/ha): 0
- Foxtail, Giant plant response rating ([5]; 500 g ai/ha): 20
- Pigweed plant response rating ([6]; 125 g ai/ha): 20
- Pigweed plant response rating ([6]; 500 g ai/ha): 20
- Plant response rating, Barnyardgrass [7, 20]: 0
- Barnyardgrass plant response rating [7, 21]: 0
- Plant response rating, Kochia (kochia (Kochia scoparia) [8]; [20]): 0
- Kochia plant response rating (kochia (Kochia scoparia) [8]; [21]): 50
- Plant response rating, Ragweed [9, 20]: 0
- Ragweed plant response rating [9, 21]: 0
- Plant response rating, Ryegrass, Italian [10, 20]: 0
- Ryegrass, Italian plant response rating [10, 21]: 0
- Plant response rating, Foxtail, Giant [11, 20]: 0
- Foxtail, Giant plant response rating [11, 21]: 10
- Plant response rating, Pigweed [12, 20]: 0
- Pigweed plant response rating [12, 21]: 60
- Plant response rating, Wheat [13, 20]: 0
- Wheat plant response rating [13, 21]: 0
- Plant response rating, Corn (corn (Zea mays); [20]): 0
- Corn plant response rating (corn (Zea mays); [21]): 0
- Plant response rating, Blackgrass [14, 20]: 0
- Blackgrass plant response rating [14, 21]: 20
- Plant response rating, Galium [15, 20]: 0
- Galium plant response rating [15, 21]: 0
- Plant response rating, Rice (0 to 100 scale, 0 is no effect, 100 is complete control) (rice (Oryza sativa)): 0
- Plant response rating, Sedge, Umbrella (0 to 100 scale, 0 is no effect, 100 is complete control) [16]: 0
- Plant response rating, Ducksalad (0 to 100 scale, 0 is no effect, 100 is complete control) [17]: 0
- Plant response rating, Barnyardgrass (0 to 100 scale, 0 is no effect, 100 is complete control) [18]: 0

SMILES: C[C@@H](Nc1ncc(C(F)(F)F)c(N)n1)c1ccc2ccccc2c1 [Compound 1]
- Plant response rating, Barnyardgrass ([1]; 125 g ai/ha): 0
- Plant response rating, Barnyardgrass ([1]; 500 g ai/ha): 0
- Plant response rating, Kochia (kochia (Kochia scoparia) [2]; 125 g ai/ha): 0
- Plant response rating, Kochia (kochia (Kochia scoparia) [2]; 500 g ai/ha): 10
- Plant response rating, Ragweed ([3]; 125 g ai/ha): 0
- Plant response rating, Ragweed ([3]; 500 g ai/ha): 0
- Plant response rating, Ryegrass, Italian ([4]; 125 g ai/ha): 0
- Plant response rating, Ryegrass, Italian ([4]; 500 g ai/ha): 0
- Plant response rating, Foxtail, Giant ([5]; 125 g ai/ha): 0
- Plant response rating, Foxtail, Giant ([5]; 500 g ai/ha): 30
- Plant response rating, Pigweed ([6]; 125 g ai/ha): 10
- Plant response rating, Pigweed ([6]; 500 g ai/ha): 90
- Plant response rating, Barnyardgrass ([7]; 125 g ai/ha): 0
- Plant response rating, Barnyardgrass ([7]; 500 g ai/ha): 0
- Plant response rating, Kochia (kochia (Kochia scoparia) [8]; 125 g ai/ha): 0
- Plant response rating, Kochia (kochia (Kochia scoparia) [8]; 500 g ai/ha): 50
- Plant response rating, Ragweed ([9]; 125 g ai/ha): 0
- Plant response rating, Ragweed ([9]; 500 g ai/ha): 50
- Plant response rating, Ryegrass, Italian ([10]; 125 g ai/ha): 0
- Plant response rating, Ryegrass, Italian ([10]; 500 g ai/ha): 20
- Plant response rating, Foxtail, Giant ([11]; 125 g ai/ha): 0
- Plant response rating, Foxtail, Giant ([11]; 500 g ai/ha): 0
- Plant response rating, Pigweed ([12]; 125 g ai/ha): 80
- Plant response rating, Pigweed ([12]; 500 g ai/ha): 100
- Plant response rating, Wheat ([13]; 125 g ai/ha): 0
- Plant response rating, Wheat ([13]; 500 g ai/ha): 0
- Plant response rating, Corn (corn (Zea mays); 125 g ai/ha): 0
- Plant response rating, Corn (corn (Zea mays); 500 g ai/ha): 0
- Plant response rating, Blackgrass ([14]; 125 g ai/ha): 0
- Plant response rating, Blackgrass ([14]; 500 g ai/ha): 0
- Plant response rating, Galium ([15]; 125 g ai/ha): 30
- Plant response rating, Galium ([15]; 500 g ai/ha): 70
- Plant response rating, Rice (0 to 100 scale, 0 is no effect, 100 is complete control) (rice (Oryza sativa)): 0
- Plant response rating, Sedge, Umbrella (0 to 100 scale, 0 is no effect, 100 is complete control) [16]: 0
- Plant response rating, Ducksalad (0 to 100 scale, 0 is no effect, 100 is complete control) [17]: 0
- Plant response rating, Barnyardgrass (0 to 100 scale, 0 is no effect, 100 is complete control) [18]: 0
